Data taken from ChEMBL document CHEMBL1201862, “PubChem BioAssay data set” (2004).
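Compound exposure: 48 hours, 5 concentrations, 96-well plates. Here, GI50 denotes the concentration required for 50% inhibition of growth.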 The source made the active and inactive calls. Cut-off read from the data, not from the text of the source: active = GI50 up to about 1.1 µM and inactive = higher.

Columns and labels:
Assay in all cases: NCI tumour cell line growth inhibition, 48 h
HCC 2998 = test system: HCC 2998
HCT-116 = test system: HCT-116
HCT-15 = test system: HCT-15
Hs-578T = test system: Hs-578T
IGROV-1 = test system: IGROV-1
K562 = test system: K562
MDA-MB-435 = test system: MDA-MB-435
NCI-H226 = test system: NCI-H226
NCI-H23 = test system: NCI-H23
NCI-H460 = test system: NCI-H460
NCI-H522 = test system: NCI-H522
PC-3 = test system: PC-3
RXF 393 = test system: RXF 393
SF-268 = test system: SF-268
SN12C = test system: SN12C
SNB-19 = test system: SNB-19
SR = test system: SR
U-251 = test system: U-251
UO-31 = test system: UO-31

Row | SMILES | GI50 (HCC 2998) | GI50 (HCT-116) | GI50 (HCT-15) | GI50 (Hs-578T) | GI50 (IGROV-1) | GI50 (K562) | GI50 (MDA-MB-435) | GI50 (NCI-H226) | GI50 (NCI-H23) | GI50 (NCI-H460) | GI50 (NCI-H522) | GI50 (PC-3) | GI50 (RXF 393) | GI50 (SF-268) | GI50 (SN12C) | GI50 (SNB-19) | GI50 (SR) | GI50 (U-251) | GI50 (UO-31)
1 | C=C1C(=O)O[C@@H]2C[C@@H](C)[C@@H]3C=CC(=O)[C@@]3(C)[C@@H](OC(=O)CCCC(=O)O[C@H]3[C@@H]4C(=C)C(=O)O[C@@H]4C[C@@H](C)[C@@H]4C=CC(=O)[C@]43C)[C@H]12 | 0.624 µM (active) | 0.0143 µM (active) | 0.0335 µM | 0.104 µM (active) | 0.112 µM (active) | < 0.01 µM (active) | 0.0167 µM (active) | 0.505 µM (active) | 0.0853 µM (active) | 0.27 µM (active) | 0.0102 µM (active) | 0.0931 µM (active) | 0.0187 µM (active) | 0.0693 µM (active) | 0.0402 µM (active) | 1.05 µM (active) | < 0.01 µM (active) | 0.101 µM (active) | 0.135 µM (active)
2 | Cc1nnc2sc(-c3ccc(-c4ccccc4Cl)o3)nn12 | 21.8 µM (inactive) | 19.8 µM (inactive) | 24.9 µM | 55.7 µM (inactive) | 40.6 µM (inactive) | 21.2 µM (inactive) | 18.9 µM (inactive) | 20.8 µM (inactive) | 24.2 µM (inactive) | 35.1 µM (inactive) | 25.4 µM (inactive) | 37.2 µM (inactive) | 33.8 µM (inactive) | 33.9 µM (inactive) | 35.4 µM (inactive) | 40.5 µM (inactive) | 19 µM (inactive) | 32.5 µM (inactive) | 33.7 µM (inactive)
3 | O=C1CC2CC(CC3(CO3)C2)C1F (configuration not stated) | > 100 µM (inactive) | > 100 µM (inactive) | > 100 µM | > 100 µM (inactive) | > 100 µM (inactive) | > 100 µM (inactive) | > 100 µM (inactive) | > 100 µM (inactive) | > 100 µM (inactive) | > 100 µM (inactive) | > 100 µM (inactive) | > 100 µM (inactive) | > 100 µM (inactive) | > 100 µM (inactive) | > 100 µM (inactive) | > 100 µM (inactive) | > 100 µM (inactive) | > 100 µM (inactive) | > 100 µM (inactive)
4 | O=C(O)c1c(-c2ccccc2)c(=O)[nH]c2ccccc12 | > 100 µM (inactive) | > 100 µM (inactive) | > 100 µM | > 100 µM (inactive) | > 100 µM (inactive) | > 100 µM (inactive) | > 100 µM (inactive) | > 100 µM (inactive) | > 100 µM (inactive) | > 100 µM (inactive) | > 100 µM (inactive) | > 100 µM (inactive) | > 100 µM (inactive) | > 100 µM (inactive) | > 100 µM (inactive) | > 100 µM (inactive) | > 100 µM (inactive) | > 100 µM (inactive) | > 100 µM (inactive)
5 | O=C(O)/C=C/C=C/c1ccc2c(c1)OCO2 [PIPERIC ACID] | – | > 100 µM (inactive) | > 100 µM | 82.6 µM (inactive) | > 100 µM (inactive) | > 100 µM (inactive) | > 100 µM (inactive) | > 100 µM (inactive) | > 100 µM (inactive) | > 100 µM (inactive) | > 100 µM (inactive) | > 100 µM (inactive) | > 100 µM (inactive) | > 100 µM (inactive) | > 100 µM (inactive) | > 100 µM (inactive) | > 100 µM (inactive) | > 100 µM (inactive) | > 100 µM (inactive)
6 | CC1CC(C)C(C#N)N(C)c2ccccc21 (configuration not stated) | > 100 µM (inactive) | 36.5 µM (inactive) | > 100 µM | > 100 µM (inactive) | > 100 µM (inactive) | 87.9 µM (inactive) | 69.2 µM (inactive) | > 100 µM (inactive) | > 100 µM (inactive) | > 100 µM (inactive) | – | > 100 µM (inactive) | 6.12 µM (inactive) | > 100 µM (inactive) | > 100 µM (inactive) | > 100 µM (inactive) | 25.6 µM (inactive) | – | > 100 µM (inactive)
7 | CC(C)(C)N/N=C(\C(=O)Nc1ccc([N+](=O)[O-])cc1[N+](=O)[O-])c1nc2ccc([N+](=O)[O-])cc2nc1O | 37.1 µM (inactive) | 68.5 µM (inactive) | 43.4 µM | 82.6 µM (inactive) | > 100 µM (inactive) | 37 µM (inactive) | > 100 µM (inactive) | 23.7 µM (inactive) | 86.1 µM (inactive) | 31.8 µM (inactive) | 66.7 µM (inactive) | 96.4 µM (inactive) | > 100 µM (inactive) | > 100 µM (inactive) | > 100 µM (inactive) | > 100 µM (inactive) | 31.3 µM (inactive) | > 100 µM (inactive) | 82.2 µM (inactive)
8 | CCOC(=O)C(NC(=O)c1ccccc1)(Nc1ccc(S(=O)(=O)Nc2nc(C)cc(C)n2)cc1)C(F)(F)F (configuration not stated) | > 100 µM (inactive) | > 100 µM (inactive) | > 100 µM | > 100 µM (inactive) | > 100 µM (inactive) | > 100 µM (inactive) | > 100 µM (inactive) | > 100 µM (inactive) | > 100 µM (inactive) | > 100 µM (inactive) | – | > 100 µM (inactive) | > 100 µM (inactive) | > 100 µM (inactive) | > 100 µM (inactive) | > 100 µM (inactive) | > 100 µM (inactive) | > 100 µM (inactive) | > 100 µM (inactive)
9 | COc1ccc(OC)c(-c2nc(O)c3ccccc3n2)c1 | > 100 µM (inactive) | > 100 µM (inactive) | > 100 µM | > 100 µM (inactive) | > 100 µM (inactive) | > 100 µM (inactive) | > 100 µM (inactive) | > 100 µM (inactive) | > 100 µM (inactive) | > 100 µM (inactive) | – | > 100 µM (inactive) | 15 µM (inactive) | > 100 µM (inactive) | > 100 µM (inactive) | > 100 µM (inactive) | 67 µM (inactive) | > 100 µM (inactive) | > 100 µM (inactive)
10 | CN(/N=C/C=N/N(C)C1=NCCN1)C1=NCCN1 | > 100 µM (inactive) | > 100 µM (inactive) | > 100 µM | > 100 µM (inactive) | > 100 µM (inactive) | > 100 µM (inactive) | > 100 µM (inactive) | > 100 µM (inactive) | > 100 µM (inactive) | > 100 µM (inactive) | > 100 µM (inactive) | > 100 µM (inactive) | – | > 100 µM (inactive) | > 100 µM (inactive) | > 100 µM (inactive) | > 100 µM (inactive) | > 100 µM (inactive) | > 100 µM (inactive)
11 | CC1=NN(c2nc(N)nc(/C(C#N)=C\c3csc([N+](=O)[O-])c3)n2)C(C)(C)C1 | 31.7 µM (inactive) | 47.4 µM (inactive) | 81.3 µM | 22.5 µM (inactive) | 49.3 µM (inactive) | 39.4 µM (inactive) | 39.7 µM (inactive) | 25.8 µM (inactive) | 32.1 µM (inactive) | 32.7 µM (inactive) | 21.3 µM (inactive) | 20.6 µM (inactive) | 20.6 µM (inactive) | 21.8 µM (inactive) | – | – | 51.1 µM (inactive) | 19.3 µM (inactive) | 37.4 µM (inactive)
12 | O=C1CCSc2nc(-c3ccc4c(c3)OCO4)nn21 | > 10 µM (inactive) | > 10 µM (inactive) | > 10 µM | > 10 µM (inactive) | > 10 µM (inactive) | > 10 µM (inactive) | > 10 µM (inactive) | > 10 µM (inactive) | > 10 µM (inactive) | > 10 µM (inactive) | > 10 µM (inactive) | > 10 µM (inactive) | > 10 µM (inactive) | > 10 µM (inactive) | > 10 µM (inactive) | > 10 µM (inactive) | > 10 µM (inactive) | > 10 µM (inactive) | –
13 | O=C(NCCC1CNc2ccccc21)OCc1ccccc1 (configuration not stated) | > 100 µM (inactive) | > 100 µM (inactive) | > 100 µM | > 100 µM (inactive) | > 100 µM (inactive) | > 100 µM (inactive) | > 100 µM (inactive) | – | > 100 µM (inactive) | > 100 µM (inactive) | > 100 µM (inactive) | > 100 µM (inactive) | > 100 µM (inactive) | > 100 µM (inactive) | – | > 100 µM (inactive) | > 100 µM (inactive) | > 100 µM (inactive) | > 100 µM (inactive)
14 | OCCCSCCO | > 100 µM (inactive) | > 100 µM (inactive) | > 100 µM | > 100 µM (inactive) | > 100 µM (inactive) | > 100 µM (inactive) | > 100 µM (inactive) | > 100 µM (inactive) | > 100 µM (inactive) | > 100 µM (inactive) | > 100 µM (inactive) | > 100 µM (inactive) | – | > 100 µM (inactive) | > 100 µM (inactive) | > 100 µM (inactive) | > 100 µM (inactive) | > 100 µM (inactive) | > 100 µM (inactive)
15 | COc1ccc(N2C(=O)C3c4[nH]c5ccc(C)cc5c4C4CCC(C(C)C)CC4C3C2=O)cc1 (configuration not stated) | > 100 µM (inactive) | > 100 µM (inactive) | > 100 µM | 57.8 µM (inactive) | > 100 µM (inactive) | > 100 µM (inactive) | > 100 µM (inactive) | > 100 µM (inactive) | > 100 µM (inactive) | > 100 µM (inactive) | > 100 µM (inactive) | > 100 µM (inactive) | – | 75.5 µM (inactive) | > 100 µM (inactive) | > 100 µM (inactive) | > 100 µM (inactive) | 47.6 µM (inactive) | > 100 µM (inactive)
